Holding throughout (assay): relative viability (nuclei count vs DMSO), 5 days (fraction); higher = more cells survive
Compound in test [1]: CCn1c(-c2nonc2N)nc2cnc(Oc3cccc(NC(=O)c4ccc(OCCN5CCOCC5)cc4)c3)cc21 + CCNC(=O)c1noc(-c2cc(C(C)C)c(O)cc2O)c1-c1ccc(CN2CCOCC2)cc1 [Luminespib] (partner 0.01 µM)
In outline:
(§1)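 Cells from lung cancer lines were seeded into 1536-well plates and, one day later, dosed by pin tool. Treatments were either a single drug or a fixed dose of an anchor drug with five library-drug doses (not always all listed) in √10 steps. After 5 days, nuclei were stained in a one-step fixation (final 0.05% Triton X-100, 1% formaldehyde, 1 ug/ml Hoechst) and counted on 4× images, and relative viability is the treated-to-vehicle nuclei ratio, as the median of duplicate plates.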

Compound in test [2]: N=C1NC(=O)/C(=C/c2ccc(O)cc2)S1 [Mirin] + Nc1nc2[nH]cc(CCc3ccc(C(=O)N[C@@H](CCC(=O)O)C(=O)O)cc3)c2c(=O)[nH]1 [Pemetrexed] (partner 0.2 µM)
In outline:
as §1

Compound in test [3]: CCn1c(-c2nonc2N)nc2cnc(Oc3cccc(NC(=O)c4ccc(OCCN5CCOCC5)cc4)c3)cc21 + CC(=O)c1c(C)c2cnc(Nc3ccc(N4CCNCC4)cn3)nc2n(C2CCCC2)c1=O [Palbociclib] (partner 0.5 µM)
The method in brief:
as §1

Compound in test [4]: CCn1c(-c2nonc2N)nc2cnc(Oc3cccc(NC(=O)c4ccc(OCCN5CCOCC5)cc4)c3)cc21 + Nc1nc2[nH]cc(CCc3ccc(C(=O)N[C@@H](CCC(=O)O)C(=O)O)cc3)c2c(=O)[nH]1 [Pemetrexed] (partner 0.2 µM)
In outline:
as §1

In the case of UMC-11, the relative viability in test [1] (first compound 0.04 µM) worked out at 1.03; in test [1] (first compound 0.1265 µM), 0.915; in test [1] (first compound 0.4 µM), 0.83; in test [1] (first compound 1.265 µM) it was 0.291; in test [1] (first compound 4 µM), 0.222; in test [2] (first compound 0.25 µM) it was 0.787. Also, the relative viability is 0.74 in test [2] (first compound 0.7906 µM); 0.92 in test [2] (first compound 2.5 µM); 0.691 in test [2] (first compound 7.906 µM); 0.568 in test [2] (first compound 25 µM); 0.277 in test [3] (first compound 0.04 µM); 0.379 in test [3] (first compound 0.1265 µM). Further, the relative viability in test [3] (first compound 0.4 µM) was determined as 0.269; in test [3] (first compound 1.265 µM), 0.151; in test [3] (first compound 4 µM), 0.248; in test [4] (first compound 0.04 µM), 0.813; in test [4] (first compound 0.1265 µM) it was 0.596; in test [4] (first compound 0.4 µM), 0.613. Further, the relative viability in test [4] (first compound 1.265 µM) worked out at 0.283; in test [4] (first compound 4 µM), 0.231.

Values taken from the supplement of paper PMC10307832.
